Data: ChEMBL document CHEMBL3885861, “Open TG-GATES”

Species on record: Rattus norvegicus
Assay: Open TG-GATES - Regimen: Single
Type: toxicity, organism-based, Sprague-Dawley
Design: regimen Single, gender Male, age 6 weeks
Conditions: in vivo, po, 200 mg/kg, route gavage, dose level High; for APTT / Bas / Eos / Fbg / Hb / Ht / Lym / MCH / MCHC / MCV / Mono / Neu / PT / Plat / RBC / Ret / WBC: tissue Blood; for KIDNEY_L / KIDNEY_R / KIDNEY_TOTAL: tissue Kidney; for LIVER: tissue Liver; for A/G / ALP / ALT / AST / BUN / CRE / Ca / Cl / DBIL / GLC / IP / K / LDH / Na / PL / RALB / TBIL / TC / TG / TP / gamma-GTP: tissue Plasma

CCc1oc2ccccc2c1C(=O)c1cc(Br)c(O)c(Br)c1 [BENZBROMARONE]
TERMINAL_BW (3 h): 215.1 g
APTT (3 h): 17.8 s
Bas (3 h): 0%
Eos (3 h): 1%
Fbg (3 h): 227 mg/dL
Hb (3 h): 13.3 g/dL
Ht (3 h): 39.8%
Lym (3 h): 76.4%
MCH (3 h): 22.2 pg
MCHC (3 h): 33.3%
MCV (3 h): 66.5 fL
Mono (3 h): 4.4%
Neu (3 h): 18.4%
PT (3 h): 12.3 s
Plat (3 h): 98.6 x10_4/uL
RBC (3 h): 600 x10_4/ul
Ret (3 h): 7.7%
WBC (3 h): 85.4 x10_2/uL
KIDNEY_L (3 h): 1 g
KIDNEY_R (3 h): 0.9 g
KIDNEY_TOTAL (3 h): 1.9 g
LIVER (3 h): 9.9 g
A/G (3 h): 1.9
ALP (3 h): 814 IU/L
ALT (3 h): 37.2 IU/L
AST (3 h): 70 IU/L
BUN (3 h): 17.2 mg/dL
CRE (3 h): 0.8 mg/dL
Ca (3 h): 9.9 mg/dL
Cl (3 h): 103.4 meq/L
DBIL (3 h): 0.096 mg/dL
GLC (3 h): 252.6 mg/dL
IP (3 h): 10 mg/dL
K (3 h): 5.3 meq/L
LDH (3 h): 137.2 IU/L
Na (3 h): 138.4 meq/L
PL (3 h): 136.8 mg/dL
RALB (3 h): 3.6 g/dL
TBIL (3 h): 0.4 mg/dL
TC (3 h): 75.6 mg/dL
TG (3 h): 69.6 mg/dL
TP (3 h): 5.5 g/dL
gamma-GTP (3 h): 1 IU/L
TERMINAL_BW (6 h): 213.5 g
APTT (6 h): 16.3 s
Bas (6 h): 0%
Eos (6 h): 0.8%
Fbg (6 h): 239.2 mg/dL
Hb (6 h): 13.2 g/dL
Ht (6 h): 39.6%
Lym (6 h): 80.2%
MCH (6 h): 21.6 pg
MCHC (6 h): 33.3%
MCV (6 h): 64.8 fL
Mono (6 h): 5.4%
Neu (6 h): 13.6%
PT (6 h): 12.2 s
Plat (6 h): 97.5 x10_4/uL
RBC (6 h): 612 x10_4/ul
Ret (6 h): 7.9%
WBC (6 h): 66.9 x10_2/uL
KIDNEY_L (6 h): 1 g
KIDNEY_R (6 h): 1 g
KIDNEY_TOTAL (6 h): 2 g
LIVER (6 h): 9.5 g
A/G (6 h): 2
ALP (6 h): 776.8 IU/L
ALT (6 h): 34 IU/L
AST (6 h): 59 IU/L
BUN (6 h): 14.2 mg/dL
CRE (6 h): 0.7 mg/dL
Ca (6 h): 10.5 mg/dL
Cl (6 h): 101.4 meq/L
DBIL (6 h): 0.024 mg/dL
GLC (6 h): 212.4 mg/dL
IP (6 h): 10.3 mg/dL
K (6 h): 4.8 meq/L
LDH (6 h): 137.4 IU/L
Na (6 h): 139.2 meq/L
PL (6 h): 137 mg/dL
RALB (6 h): 3.8 g/dL
TBIL (6 h): 0.4 mg/dL
TC (6 h): 78.4 mg/dL
TG (6 h): 56.6 mg/dL
TP (6 h): 5.7 g/dL
gamma-GTP (6 h): 1.4 IU/L
TERMINAL_BW (9 h): 213.1 g
APTT (9 h): 17 s
Bas (9 h): 0%
Eos (9 h): 0%
Fbg (9 h): 240 mg/dL
Hb (9 h): 13.2 g/dL
Ht (9 h): 39.4%
Lym (9 h): 79.2%
MCH (9 h): 22.2 pg
MCHC (9 h): 33.6%
MCV (9 h): 66 fL
Mono (9 h): 2.8%
Neu (9 h): 17.8%
PT (9 h): 12.2 s
Plat (9 h): 104 x10_4/uL
RBC (9 h): 596.4 x10_4/ul
Ret (9 h): 8.2%
WBC (9 h): 96.1 x10_2/uL
KIDNEY_L (9 h): 1 g
KIDNEY_R (9 h): 1 g
KIDNEY_TOTAL (9 h): 2 g
LIVER (9 h): 9.2 g
A/G (9 h): 2.1
ALP (9 h): 868 IU/L
ALT (9 h): 34.4 IU/L
AST (9 h): 60.8 IU/L
BUN (9 h): 16.6 mg/dL
CRE (9 h): 0.7 mg/dL
Ca (9 h): 10.4 mg/dL
Cl (9 h): 103.4 meq/L
DBIL (9 h): 0.04 mg/dL
GLC (9 h): 207.8 mg/dL
IP (9 h): 10.7 mg/dL
K (9 h): 4.9 meq/L
LDH (9 h): 178.8 IU/L
Na (9 h): 138.6 meq/L
PL (9 h): 143.8 mg/dL
RALB (9 h): 3.9 g/dL
TBIL (9 h): 0.3 mg/dL
TC (9 h): 81.2 mg/dL
TG (9 h): 65.6 mg/dL
TP (9 h): 5.9 g/dL
gamma-GTP (9 h): 1.4 IU/L
TERMINAL_BW (24 h): 217.2 g
APTT (24 h): 15.8 s
Bas (24 h): 0%
Eos (24 h): 0.6%
Fbg (24 h): 219.2 mg/dL
Hb (24 h): 13.9 g/dL
Ht (24 h): 41.2%
Lym (24 h): 83.6%
MCH (24 h): 22.2 pg
MCHC (24 h): 33.6%
MCV (24 h): 65.9 fL
Mono (24 h): 4.6%
Neu (24 h): 11.4%
PT (24 h): 12.4 s
Plat (24 h): 107.4 x10_4/uL
RBC (24 h): 627.2 x10_4/ul
Ret (24 h): 7.6%
WBC (24 h): 117.5 x10_2/uL
KIDNEY_L (24 h): 1 g
KIDNEY_R (24 h): 1 g
KIDNEY_TOTAL (24 h): 2 g
LIVER (24 h): 11.3 g
A/G (24 h): 2.1
ALP (24 h): 1012.6 IU/L
ALT (24 h): 35 IU/L
AST (24 h): 61 IU/L
BUN (24 h): 16.8 mg/dL
CRE (24 h): 0.7 mg/dL
Ca (24 h): 10.2 mg/dL
Cl (24 h): 103.6 meq/L
DBIL (24 h): 0.018 mg/dL
GLC (24 h): 182 mg/dL
IP (24 h): 7.9 mg/dL
K (24 h): 4.9 meq/L
LDH (24 h): 186.2 IU/L
Na (24 h): 139.6 meq/L
PL (24 h): 119.6 mg/dL
RALB (24 h): 3.9 g/dL
TBIL (24 h): 0.3 mg/dL
TC (24 h): 70.8 mg/dL
TG (24 h): 74.8 mg/dL
TP (24 h): 5.9 g/dL
gamma-GTP (24 h): 1.6 IU/L
